Data: paper PMC4704828, “Effect of Methamphetamine on Spectral Binding, Ligand Docking and Metabolism of Anti-HIV Drugs with CYP3A4” (PLoS ONE, 2016)
Like-named read-outs stand apart in the source and are kept apart here.

Columns and labels:
CYP3A4 [1] = target: CYP3A4 (Homo sapiens, UniProt P08684); assay: biochemical
Description: Histidine tagged CYP3A4 enzyme was expressed in E. coli and purified on Ni-NTA agarose column as described previously. Briefly, CYP3A4 cDNA was introduced into TOPP3 strain of E. coli by transformation and the cells were plated on LB ampicillin plate with tetracycline. The next day, a viable and isolated colony was grown in TB media for 48 h to induce CYP3A4. The cultures were harvested by centrifugation and CYP3A4 was extracted from the membrane using detergent followed by ultracentrifugation. The supernatant was loaded on a Ni-NTA agarose column for further purification. The purified enzyme was dialyzed and final preparation was stored at -80^οC until use.
The spectral change was recorded by using a UV/Vis double beam spectrophotometer (6800 UV/VIS JENWAY spectrophotometer) as described earlier. Briefly, 0.5 μM of purified CYP3A4 enzyme was incubated with 2 ml of 0.1 M HEPES buffer for 3 min and distributed equally between the sample and reference cuvettes. Depending upon the solvent used to solubilize methamphetamine or PIs, equal quantities of either methanol or water was added into the reference cuvette with final volume of the external solvent <1%. Increasing concentrations of methamphetamine was added to the sample cuvette while the same volume of solvent was added into the reference cuvette and the spectral change was recorded. For experiments involving PIs, different concentrations of PIs were added into the sample cuvette and the spectral change was recorded with a 2 min interval between each addition. […] Type I ligands displace the heme water ligand, thus shifting the iron spin equilibrium towards the high-spin form resulting in a spectrum, which is characterized by an increase in the absorbance at 390 nm (high spin) and a decrease at 420 nm (low spin). Type II ligands containing nitrogen heterocycles replace the water ligand to stabilize the low-spin form resulting in a spectrum that is characterized by an increase in the spectrum at ~430 nm and a decrease at ~400 nm. The effect of methamphetamine on the spectral binding of PIs was determined by incubating the CYP3A4 enzyme with 100 μM of methamphetamine and titrating with increasing concentrations of PIs.
The KD and δAmax were determined by fitting the curve (absorbance vs. concentration) with hyperbolic equation using non-regression analysis in sigma plot 11 (Systat Software, San Jose, CA). The p-values were determined using One way ANOVA with Dunnet’s post-hoc test and values <0.05 were considered statistically significant.

CYP3A4 [2] = details: HLMs; for decrease in formation of hydroxy ritonavir: substrate ritonavir 2 μM
Description: Briefly, the metabolite formations were assessed in incubation mixtures (0.5 mL) containing 100 mM phosphate buffer (pH 7.4), HLMs (0.1 mg/mL), and 5 mM Mgcl2 [13, 14]. The incubation mixtures were pre-incubated with six different concentrations of Meth ranging from 3 μM to 1000 μM for 10 min, followed by the addition of 5 μl stock solution of PI. The entire mixture was incubated in water bath at 37°C for 15 min. […] Later, the reactions were initiated upon the addition of 100 μl of 25 mM NADPH (final concentration of 5 mM) solution to each of the tube and incubated in water bath at 37°C for 60 min. […] Then, the tubes were vortexed and centrifuged at 500 g for 10 min and supernatant was transferred into vials for analysis by LC-MS/MS.
Standard curves for each analyte with IS were generated in blank HLMs incubation mixture as described above. The carry over test was performed by injecting an extra blank following the injection of upper limit of quantitation (ULOQ) of the standard curve with an IS. The LC-MS/MS methods were developed for each analyte along with its metabolite using 3200 QTRAP LC-MS/MS system, AB Sciex. […] (Fig 1, Table 1). A source temperature of 500°C, ion spray voltage of 5500 V, curtain gas of 20, GS 1 & 2 of 50, and dwell time of 200 msec were used for the determination of all analytes. The MRM method parameters such as declustering potential (DP), entrance potential (EP), collision energy (CE), and collision cell exit potential (CXP), were listed in the Table 1 along with the MRM transitions.
All the analytes were separated on reverse phase XTerra ® MS C18 column (4.6X50mm, i.d, 3.5 μm) using a Shimadzu LC-20AD HPLC system (CA, USA). A binary gradient elution method comprising of mobile phases (acetonitrile with 0.1% formic acid and water with 0.1% formic acid) with a flow rate of 0.5 mL/min was employed. […] Data acquisition and analyses were performed using the Analyst 1.4.2 software package (Applied Biosystems, Foster City, CA, USA).

CYP3A4 (Homo sapiens, UniProt P08684), sequence (P08684 whole entry): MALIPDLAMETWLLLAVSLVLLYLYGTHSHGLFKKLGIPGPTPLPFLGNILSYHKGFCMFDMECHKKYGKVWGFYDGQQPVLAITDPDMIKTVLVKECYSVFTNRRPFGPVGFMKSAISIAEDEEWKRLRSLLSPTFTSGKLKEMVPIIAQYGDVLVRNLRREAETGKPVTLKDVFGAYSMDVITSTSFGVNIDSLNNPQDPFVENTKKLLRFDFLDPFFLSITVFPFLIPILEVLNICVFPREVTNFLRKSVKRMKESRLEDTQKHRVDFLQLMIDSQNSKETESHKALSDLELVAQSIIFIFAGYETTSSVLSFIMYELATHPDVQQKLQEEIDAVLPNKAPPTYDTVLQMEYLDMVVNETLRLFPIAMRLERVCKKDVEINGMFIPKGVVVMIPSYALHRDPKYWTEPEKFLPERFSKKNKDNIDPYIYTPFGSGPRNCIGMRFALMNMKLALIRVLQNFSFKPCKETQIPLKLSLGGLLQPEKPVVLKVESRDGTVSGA

## CCC[C@@]1(CCc2ccccc2)CC(O)=C([C@H](CC)c2cccc(NS(=O)(=O)c3ccc(C(F)(F)F)cn3)c2)C(=O)O1 [Tipranavir]
CYP3A4 [1]; human
  δAmax: 0.0050 ± 0.0005

## CN[C@@H](C)Cc1ccccc1 [methamphetamine]
CYP3A4 [2]; 100 μM methamphetamine
  decrease in formation of hydroxy ritonavir: 23.3 ± 3.8%
CYP3A4 [2]; 1000 μM methamphetamine
  decrease in formation of hydroxy ritonavir: 46.2 ± 3.3%
CYP3A4 [2]; methamphetamine 3 μM to 1000 μM, substrate lopinavir 10 μM
  effect on metabolism of lopinavir (lopinavir M1 formation): did not affect
CYP3A4 [2]; methamphetamine 3 μM to 1000 μM, substrate nelfinavir M-8 1 μM
  effect on metabolism of nelfinavir M8 (decrease in substrate concentration): did not affect
CYP3A4 [1]; KD, methamphetamine alone titrated with CYP3A4, hyperbolic fit
  Kd: 204 ± 18 µM
CYP3A4 [1]; at saturating concentration of methamphetamine
  spectral transition (low to high spin) with CYP3A4: approximately 20%
CYP3A4 [1]; increase in absorbance at 390 nm, decrease at 418 nm
  type of spectral change upon binding to CYP3A4: type I
CYP3A4 [1]; methamphetamine alone titrated with CYP3A4, hyperbolic fit
  δAmax: 0.016±0.001

## Cc1c(O)cccc1C(=O)N[C@@H](CSc1ccccc1)[C@H](O)CN1C[C@H]2CCCC[C@H]2C[C@H]1C(=O)NC(C)(C)C [Nelfinavir]
CYP3A4 [1]; human
  δAmax: 0.0068 ± 0.0001

## COC(=O)N[C@H](C(=O)N[C@@H](Cc1ccccc1)[C@@H](O)CN(Cc1ccc(-c2ccccn2)cc1)NC(=O)[C@@H](NC(=O)OC)C(C)(C)C)C(C)(C)C [Atazanavir]
CYP3A4 [1]; human
  δAmax: 0.0045 ± 0.0002
